# Data: patent publication US10046001B2, “Compositions and methods for reducing intraocular pressure” (UNIVERSITY OF MIAMI, priority 2013, dated 2018)
# Tested on: normotensive cynomolgus monkeys
# Test: IOP and slit lamp examination in normotensive cynomolgus monkeys after topical lipid
# Format: in vivo
# Procedure: Lipids were topically administered in 1 μl volume around ˜1 pm in the afternoon. The right eye was treated with vehicle alone, and the left eye was treated with lipid. The cynomolgus monkeys (n=4) were treated with […] lipid (except C17S1P which was 50 nM) for 5 days. Monkeys were subjected to slit lamp examination and IOP measurement prior to and after treatment. The IOP measured 3-6 hours post-treatment on the fifth day of treatment is depicted as solid bars. The hollow bars are control (vehicle only (5% DMSO)).
# Experimental design: The IOP-reducing activity of six lipids was tested in the eyes of cynomolgus monkeys (n=4 animals for each lipid). Baseline slit lamp biomicroscopic examination (SLE) and IOP for each group of animals was measured prior to topical application of lipids. The SLE and IOP were then measured at 3-6 hours posttreatment. One eye of each monkey received topical application with the lipid suspended in vehicle (1% dimethylsulfoxide (DMSO)), and the contralateral eye was treated with vehicle only. All topical applications contained 10 picomole of lipid (except C17S1P, which was 50 nM). […] The IOP was measured using a minified Goldmann applanation tonometer.
compound,measurement,setting,value
CCCCCCCCCCCCCC[C@@H](O)[C@@H](N)COP(=O)(O)O [C17 Sphinganine-1-phosphate],IOP reduction,"topical 10 picomole (C17S1P 50 nM), 5 days, IOP 3-6 hours post-treatment",reduced IOP significantly
same,adverse side effects or toxicity,"topical, slit lamp examination",without additional adverse side effects or toxicity
